Assay results as given in article PMC2929565 (Toxicology and applied pharmacology, 2010).
Like-named read-outs stand apart in the source and are kept apart here. Marks after values point to notes of the source that are not given here.

How the values were obtained:
[1] = system: rats; details: rat, in vivo; cited from earlier work
[2] = target: rat Nav1.6 sodium channels (Rattus norvegicus, UniProt O88420); assay type: cell-based; details: for Steady-state inactivation K (slope factor) / Activation K (slope factor) / Activation V0.5 (midpoint potential) / Steady-state inactivation V0.5 (midpoint potential) / Tail current decay time constant, fast component (τ1) / Peak current inactivation time constant, fast component (τfast) / Peak current inactivation time constant, slow component (τslow): pyrethroid 100 μM; for Steady-state inactivation K (slope factor) / Activation K (slope factor) / Activation V0.5 (midpoint potential) / Steady-state inactivation V0.5 (midpoint potential): Boltzmann fit; for Steady-state inactivation K (slope factor): control 7.02 ± 0.13; for Activation K (slope factor): control 8.02 ± 0.23; for Activation V0.5 (midpoint potential): control −17.0 ± 0.4; for Steady-state inactivation V0.5 (midpoint potential): control −50.3 ± 0.3; for Tail current decay time constant, fast component (τ1) / Peak current inactivation time constant, fast component (τfast) / Peak current inactivation time constant, slow component (τslow): mean ± SE; for Peak current inactivation time constant, fast component (τfast): control 1.32 ± 0.03; for Peak current inactivation time constant, slow component (τslow): control 10.93 ± 2.25; for Effect of repetitive depolarization on modification (words): trains of high-frequency depolarizing prepulses
[3] = target: rat Nav1.2 sodium channels (Rattus norvegicus, UniProt P04775, N209D); assay type: cell-based
[4] = system: rats; assay: Acute oral toxicity to rats; assay type: in vivo, rat; details: ref Soderlund et al., 2002
[5] = 0 prepulses, Hill fit, mean ± SE of 5
[6] = 100 prepulses, Hill fit, mean ± SE of 5
[7] = EC10 0 prepulses vs 100 prepulses

rat Nav1.6 sodium channels, sequence (O88420 whole entry): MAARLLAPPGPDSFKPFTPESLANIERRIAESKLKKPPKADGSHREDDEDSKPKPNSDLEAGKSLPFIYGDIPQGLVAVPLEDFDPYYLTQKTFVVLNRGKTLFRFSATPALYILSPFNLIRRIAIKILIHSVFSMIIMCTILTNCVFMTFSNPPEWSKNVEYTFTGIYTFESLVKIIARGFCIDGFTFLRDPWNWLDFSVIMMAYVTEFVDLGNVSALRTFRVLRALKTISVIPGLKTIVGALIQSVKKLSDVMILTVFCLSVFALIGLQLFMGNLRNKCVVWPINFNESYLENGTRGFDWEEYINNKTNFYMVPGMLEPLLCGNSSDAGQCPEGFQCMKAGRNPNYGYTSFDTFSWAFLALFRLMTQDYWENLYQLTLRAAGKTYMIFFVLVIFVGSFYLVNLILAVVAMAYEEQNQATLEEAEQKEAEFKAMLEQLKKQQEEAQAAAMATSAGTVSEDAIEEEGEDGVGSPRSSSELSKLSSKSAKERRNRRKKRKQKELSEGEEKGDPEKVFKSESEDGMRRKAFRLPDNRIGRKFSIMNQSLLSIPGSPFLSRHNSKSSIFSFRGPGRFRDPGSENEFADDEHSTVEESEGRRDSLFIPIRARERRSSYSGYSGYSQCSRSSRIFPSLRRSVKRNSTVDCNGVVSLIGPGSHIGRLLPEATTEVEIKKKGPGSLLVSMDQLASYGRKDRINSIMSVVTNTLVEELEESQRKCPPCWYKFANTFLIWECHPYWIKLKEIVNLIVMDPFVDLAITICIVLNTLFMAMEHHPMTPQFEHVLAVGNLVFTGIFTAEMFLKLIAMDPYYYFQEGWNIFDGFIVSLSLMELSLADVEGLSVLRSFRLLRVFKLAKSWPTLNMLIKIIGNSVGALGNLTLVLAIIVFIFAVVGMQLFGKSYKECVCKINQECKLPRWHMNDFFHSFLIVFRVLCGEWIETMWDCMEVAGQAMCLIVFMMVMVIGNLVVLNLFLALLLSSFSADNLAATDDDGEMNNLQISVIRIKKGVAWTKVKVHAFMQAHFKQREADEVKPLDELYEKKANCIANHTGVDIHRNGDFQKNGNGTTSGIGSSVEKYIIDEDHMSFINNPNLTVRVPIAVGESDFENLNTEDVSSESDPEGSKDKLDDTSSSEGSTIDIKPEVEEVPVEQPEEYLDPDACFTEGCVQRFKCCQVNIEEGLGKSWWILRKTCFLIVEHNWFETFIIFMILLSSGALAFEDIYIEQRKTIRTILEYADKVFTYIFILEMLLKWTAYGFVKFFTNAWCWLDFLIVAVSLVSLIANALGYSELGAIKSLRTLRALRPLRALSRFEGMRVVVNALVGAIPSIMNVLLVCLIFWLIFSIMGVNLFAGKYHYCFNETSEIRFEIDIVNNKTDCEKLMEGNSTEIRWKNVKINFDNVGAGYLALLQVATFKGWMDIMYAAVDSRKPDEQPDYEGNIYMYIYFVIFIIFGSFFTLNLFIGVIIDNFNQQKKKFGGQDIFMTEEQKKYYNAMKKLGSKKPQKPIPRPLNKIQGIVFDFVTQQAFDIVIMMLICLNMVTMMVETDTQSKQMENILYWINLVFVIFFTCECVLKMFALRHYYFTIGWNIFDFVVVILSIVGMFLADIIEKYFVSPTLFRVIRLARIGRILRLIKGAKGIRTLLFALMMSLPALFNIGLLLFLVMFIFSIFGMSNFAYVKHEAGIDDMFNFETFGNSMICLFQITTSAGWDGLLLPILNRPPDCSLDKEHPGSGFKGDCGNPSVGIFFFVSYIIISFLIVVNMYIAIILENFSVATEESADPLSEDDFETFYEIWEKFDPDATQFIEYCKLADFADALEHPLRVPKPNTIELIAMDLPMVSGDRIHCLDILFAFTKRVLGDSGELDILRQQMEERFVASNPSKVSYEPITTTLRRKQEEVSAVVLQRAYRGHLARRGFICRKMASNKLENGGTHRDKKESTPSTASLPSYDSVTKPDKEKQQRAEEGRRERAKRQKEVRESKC
rat Nav1.6 sodium channels, sequence (Q00954 19-218 partner): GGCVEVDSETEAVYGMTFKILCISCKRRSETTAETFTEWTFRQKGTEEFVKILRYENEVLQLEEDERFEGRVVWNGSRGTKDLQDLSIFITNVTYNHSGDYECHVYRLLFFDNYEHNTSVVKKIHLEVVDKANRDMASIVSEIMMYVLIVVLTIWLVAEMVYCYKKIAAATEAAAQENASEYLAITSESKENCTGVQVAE
rat Nav1.6 sodium channels, sequence (P54900 30-215 partner): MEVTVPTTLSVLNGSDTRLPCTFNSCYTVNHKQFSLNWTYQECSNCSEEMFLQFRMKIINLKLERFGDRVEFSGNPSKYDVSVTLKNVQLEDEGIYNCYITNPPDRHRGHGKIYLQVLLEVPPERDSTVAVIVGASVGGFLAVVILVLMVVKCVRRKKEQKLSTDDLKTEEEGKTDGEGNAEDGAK
rat Nav1.2 sodium channels, sequence (P04775 whole entry N209D): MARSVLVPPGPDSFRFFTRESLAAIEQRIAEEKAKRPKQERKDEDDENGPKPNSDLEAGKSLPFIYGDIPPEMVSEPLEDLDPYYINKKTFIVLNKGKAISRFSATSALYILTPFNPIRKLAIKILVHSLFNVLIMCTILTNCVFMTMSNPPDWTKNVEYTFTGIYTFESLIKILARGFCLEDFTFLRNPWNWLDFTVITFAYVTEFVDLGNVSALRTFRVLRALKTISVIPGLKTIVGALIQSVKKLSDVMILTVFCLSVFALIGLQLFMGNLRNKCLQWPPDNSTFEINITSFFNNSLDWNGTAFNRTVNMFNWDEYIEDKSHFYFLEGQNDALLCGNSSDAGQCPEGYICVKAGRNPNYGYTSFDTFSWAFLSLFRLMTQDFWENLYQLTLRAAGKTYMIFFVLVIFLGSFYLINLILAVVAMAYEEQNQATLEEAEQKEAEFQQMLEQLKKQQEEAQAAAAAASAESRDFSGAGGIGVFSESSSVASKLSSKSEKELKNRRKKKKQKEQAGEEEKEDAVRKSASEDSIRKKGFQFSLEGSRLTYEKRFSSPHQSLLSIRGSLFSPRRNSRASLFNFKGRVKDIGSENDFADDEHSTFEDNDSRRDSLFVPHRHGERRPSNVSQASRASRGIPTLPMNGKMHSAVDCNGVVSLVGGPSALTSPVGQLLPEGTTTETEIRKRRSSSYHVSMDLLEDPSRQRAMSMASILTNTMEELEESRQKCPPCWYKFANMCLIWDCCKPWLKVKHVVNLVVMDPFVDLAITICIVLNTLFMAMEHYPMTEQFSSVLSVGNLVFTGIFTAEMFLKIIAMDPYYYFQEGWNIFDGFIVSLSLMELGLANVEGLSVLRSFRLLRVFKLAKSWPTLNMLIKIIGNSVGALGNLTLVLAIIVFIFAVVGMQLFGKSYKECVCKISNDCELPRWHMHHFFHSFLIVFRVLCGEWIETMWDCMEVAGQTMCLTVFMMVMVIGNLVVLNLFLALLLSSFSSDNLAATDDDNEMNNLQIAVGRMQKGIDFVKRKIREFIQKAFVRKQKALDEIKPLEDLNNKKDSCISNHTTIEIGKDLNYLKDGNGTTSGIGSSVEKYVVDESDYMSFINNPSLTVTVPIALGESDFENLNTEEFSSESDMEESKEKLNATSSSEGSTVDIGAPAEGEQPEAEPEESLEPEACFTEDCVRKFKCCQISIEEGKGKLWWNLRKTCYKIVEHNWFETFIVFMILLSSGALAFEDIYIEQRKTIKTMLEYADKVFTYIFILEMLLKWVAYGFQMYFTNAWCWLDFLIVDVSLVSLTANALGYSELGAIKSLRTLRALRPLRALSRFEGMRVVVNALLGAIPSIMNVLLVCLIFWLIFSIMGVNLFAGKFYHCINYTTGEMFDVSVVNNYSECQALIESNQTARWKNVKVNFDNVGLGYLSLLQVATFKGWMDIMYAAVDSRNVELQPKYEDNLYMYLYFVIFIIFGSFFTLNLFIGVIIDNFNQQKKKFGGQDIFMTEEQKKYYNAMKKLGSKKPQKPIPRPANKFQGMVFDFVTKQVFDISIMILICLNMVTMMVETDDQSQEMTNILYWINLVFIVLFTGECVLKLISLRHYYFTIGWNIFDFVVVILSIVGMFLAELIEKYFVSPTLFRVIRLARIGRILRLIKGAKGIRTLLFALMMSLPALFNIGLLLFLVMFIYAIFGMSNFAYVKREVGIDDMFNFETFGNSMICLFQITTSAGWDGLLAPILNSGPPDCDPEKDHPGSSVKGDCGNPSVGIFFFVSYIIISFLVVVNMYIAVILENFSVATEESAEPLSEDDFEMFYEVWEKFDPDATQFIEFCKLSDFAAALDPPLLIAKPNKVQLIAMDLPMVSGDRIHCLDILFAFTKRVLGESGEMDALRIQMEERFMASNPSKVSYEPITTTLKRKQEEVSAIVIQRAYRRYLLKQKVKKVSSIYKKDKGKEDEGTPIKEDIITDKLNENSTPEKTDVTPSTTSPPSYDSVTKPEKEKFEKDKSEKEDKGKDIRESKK
rat Nav1.2 sodium channels, sequence (Q00954 19-218 partner): as the sequence (Q00954 19-218 partner) above
rat Nav1.2 sodium channels, sequence (P54900 30-215 partner): as the sequence (P54900 30-215 partner) above

CC1(C)[C@H](C(=O)O[C@H](C#N)c2cccc(Oc3ccccc3)c2)[C@@H]1C=C(Br)Br [deltamethrin]
Acute oral LD50 [1]: 95 mg/kg

Cc1c(F)c(F)c(COC(=O)[C@@H]2[C@H](/C=C(\Cl)C(F)(F)F)C2(C)C)c(F)c1F (racemic) [tefluthrin]
EC10, resting modification [2, 5]: 14.1 ± 3.7 µM | Prepulse number up to which extent of modification increased, then stable ([2]; 100 μM): 80 prepulses | Tail current τ1 relative to S-bioallethrin-induced currents ([2]; 100 μM): approximately 4 fold | Increase of extent of channel modification by repetitive depolarization ([2]; 100 μM, 100 prepulses vs 0 prepulses): 2.8 fold | Potency relative to deltamethrin as use-dependent modifier (EC10) ([2]; 100 prepulses): ~ 10 fold | EC10, use-dependent modification [2, 6]: 0.95 ± 0.22 µM | Increase of sensitivity (EC10) to the compound by repetitive depolarization [2, 7]: ~ 15 fold | Sensitivity of Nav1.6 isoform relative to Nav1.2 isoform (concentration–effect data) ([2]; abstract summary, state not specified): at least 15 fold | Steady-state inactivation K (slope factor) [2]: 6.03 ± 0.10 ^b | Activation K (slope factor) [2]: 8.06 ± 0.21 | Activation V0.5 (midpoint potential) [2]: −17.0 ± 1.0 mV | Steady-state inactivation V0.5 (midpoint potential) [2]: −52.3 ± 1.2 mV | Tail current decay time constant, fast component (τ1) [2]: 9.8 ± 0.6 ms | Peak current inactivation time constant, fast component (τfast) [2]: 1.12 ± 0.04 ^d ms | Peak current inactivation time constant, slow component (τslow) [2]: 19.00 ± 0.64 ^d ms | EC10, resting modification [3, 5]: 222 ± 82 µM | EC10, use-dependent modification [3, 6]: 16.9 ± 5.5 µM | Increase of sensitivity (EC10) to the compound by repetitive depolarization [3, 7]: approximately 13 fold | Acute oral LD50 lower than that of deltamethrin [4]: approximately 5 fold

C=CCC1=C(C)[C@@H](OC(=O)[C@@H]2[C@@H](C=C(C)C)C2(C)C)CC1=O [S-bioallethrin]
Increase of inactivation-resistant current relative to control ([2]; 100 μM, prepulses above 0 mV, control approximately 2% of total current): approximately five-fold | Effect of repetitive depolarization on modification (words) ([2]; 100 μM): decreased slightly | Effect of repetitive depolarization on modification (words) ([2]; 100 μM, listed as S-Bioallethrin): no further enhancement of modification | Steady-state inactivation K (slope factor) [2]: 6.24 ± 0.23 | Activation K (slope factor) [2]: 7.78 ± 0.52 | Activation V0.5 (midpoint potential) [2]: −19.2 ± 1.1 mV | Steady-state inactivation V0.5 (midpoint potential) [2]: −52.8 ± 1.1 mV | Tail current decay time constant, fast component (τ1) [2]: 2.3 ± 0.4 ms | Peak current inactivation time constant, fast component (τfast) [2]: 2.11 ± 0.12 ^d ms | Peak current inactivation time constant, slow component (τslow) [2]: 7.30 ± 0.35 ^d ms
